One assay has as its target CDK4/Cyclin D1 (Homo sapiens (Human), UniProt P11802). The assay can be described thus: CDK4/CyclinD1 enzymatic activity assay (TR-FRET). The class given is biochemical. The settings on record: ATP 2 mM, read-out: CDK4_D1 IC50. How it is done: CDK4/CyclinD1 Enzymatic Activity Assay
The inhibitory activity of compounds was evaluated in vitro using TR-FRET assay with white 384-well low volume microplate (Greiner Bio-One). CDK4/Cyclin D1 catalyzed phosphorylation of peptide in the presence and absence of compounds was measured. IC50 determination. Recombinant protein complex CDK4/Cyclin D1, expressed from insect cell, was purchased from ProQinase. Testing compounds were dissolved in DMSO at 0.1 mM and tested in 9-dose IC50 mode. The reaction mixture was prepared by mixing CDK4/CyclinD1 (1 nM final), ULight-4E-BP1 (100 nM final, Perkinelmer, TRF0128-D), and ATP (2 mM final) in assay buffer (20 mM of HEPES pH 7.4, 1 mM of EGTA, 0.05% BSA, 0.005% Tween 20, and 1 mM TCEP). The compound of interest in DMSO was added to each well in 3-fold serial dilution by dispenser (TECAN D300E). After 20 minutes preincubation at room temperature, MgCl2 (10 mM final) was added to initiate the reaction. Following a 60 minutes incubation at 37° C., the reaction was stopped by addition of 2 μL of quenching buffer consisting of Lance detection buffer (Perkinelmer CR97-100C), 2 nM LANCE Ultra Europium-anti-P-4E-BP1 (Perkinelmer, TRF0216-D), 10 mM EDTA, and incubate at room temperature for additional 60 minutes in dark. The reaction signal was measured by Envision multimode plate reader (PerkinElmer, 2102-0010). IC50 values were determined by fitting the data to the standard 4 parameters with Hill Slope using GraphPad Prism software.
For orientation: Time-resolved FRET reads energy transfer from a long-lived donor to a nearby acceptor.

Assay [1] concerns MCF7 adenocarcinoma cell line. The assay is described as follows: Cell proliferation studies in MCF7 cells (ATP-Lite, 10 days). The settings on record: read-out: PROLIFERATION_CTG_MCF7 IC50. Format: cell-based. How it is done:
Cell Proliferation Studies in MCF7 Cells
Cell proliferation studies were conducted in MCF7 adenocarcinoma cell line. Cells were maintained in DMEM (Coming, Catalog #: 10-013-CV) supplemented with 10% v/v FBS (Gibco, Catalog #: 26140-079), 1% v/v Penicillin Streptomycin (Gibco, Catalog #15140-122) Cells were seeded in 384-well plates at a density of 100 or 200 cells/well. Compounds dissolved in DMSO were plated in quadruplicate using a digital dispenser (D300E, Tecan) and tested on a 9-point 3-fold serial dilution. Cells were incubated for 10 days in a 37° C. active humidified incubator at 5% CO2. A media exchange and second compound addition were performed on day 5. Cell viability was measured using the ATP-Lite 1-Step Luminescence reagent (Perkin Elmer, Catalog #: 6016731) as per manufacturer's instructions. Luminescence signal was measured with a multimode plate reader (Envision 2105, Perkin Elmer). Raw data files were imported to Dotmatics Screening Ultra for IC50 analysis. Luminescence values were normalized to both background and DMSO controls to obtain a percentage of viable cells relative to DMSO vehicle control.

These results are taken from patent US11685744B2, “CDK inhibitors and their use as pharmaceuticals” (Prelude Therapeutics, Incorporated, priority 2020, dated 2023).

Where two headings read alike, the source gives them in different places.

Sequence of CDK4/Cyclin D1 (P11802 whole entry): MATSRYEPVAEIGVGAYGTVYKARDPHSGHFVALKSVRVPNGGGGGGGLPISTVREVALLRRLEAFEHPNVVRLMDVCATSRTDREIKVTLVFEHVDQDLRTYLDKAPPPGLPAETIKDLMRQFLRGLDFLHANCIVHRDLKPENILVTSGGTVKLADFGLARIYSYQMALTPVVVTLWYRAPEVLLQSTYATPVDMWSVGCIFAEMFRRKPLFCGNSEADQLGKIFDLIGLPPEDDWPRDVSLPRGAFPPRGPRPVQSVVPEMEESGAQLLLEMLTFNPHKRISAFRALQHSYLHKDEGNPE
Sequence of CDK4/Cyclin D1 (P24385 whole entry partner): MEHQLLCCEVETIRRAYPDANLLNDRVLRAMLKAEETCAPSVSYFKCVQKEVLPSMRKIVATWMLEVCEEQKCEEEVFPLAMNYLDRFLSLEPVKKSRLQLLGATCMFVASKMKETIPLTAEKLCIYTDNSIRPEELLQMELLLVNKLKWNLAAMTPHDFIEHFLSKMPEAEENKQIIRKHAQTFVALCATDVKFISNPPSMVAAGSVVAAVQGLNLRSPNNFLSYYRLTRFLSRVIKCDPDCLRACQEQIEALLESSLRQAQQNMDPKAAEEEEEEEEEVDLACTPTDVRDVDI

As to `CCN1CCN(c2ccc(Nc3ncc(F)c(-c4cc5c(C6CCCC6)ccnc5s4)n3)nc2)CC1` [Example 44, 4-(4-Cyclopentylthieno[2,3-b]pyridin-2-yl)-N-[5-(4-ethylpiperazin-1-yl)pyridin-2-yl]-5-fluoropyrimidin-2-amine], the IC50 on CDK4/Cyclin D1 was in the range of 20 to 200 nM; in assay [1] (Homo sapiens, 240 h) it was 200 to 2000 nM.
For `CCN1CCN(c2ccc(Nc3ncc(F)c(-c4sc5c(C6CCCC6)ccnc5c4C)n3)nc2)CC1` [Example 31, 4-(7-Cyclopentyl-3-methylthieno[3,2-b]pyridin-2-yl)-N-(5-(4-ethylpiperazin-1-yl)pyridin-2-yl)-5-fluoropyrimidin-2-amine], the IC50 on CDK4/Cyclin D1 fell in the range of 20 to 200 nM; in assay [1] (Homo sapiens, 240 h), 200 to 2000 nM.
For `CN1CCC(c2ccc(Nc3ncc(F)c(-c4cc5c(C6CCCC6)ccnc5s4)n3)nc2)CC1` [Example 43, 4-(4-Cyclopentylthieno[2,3-b]pyridin-2-yl)-5-fluoro-N-(5-(1-methylpiperidin-4-yl)pyridin-2-yl)pyrimidin-2-amine], in that order: 20 to 200 nM and 200 to 2000 nM.
For `CN1CCN(c2ccc(Nc3ncc(F)c(-c4cc5nccc(C6CCCC6)c5s4)n3)nc2)CC1` [Example 37, 4-(7-Cyclopentylthieno[3,2-b]pyridin-2-yl)-5-fluoro-N-[5-(4-methylpiperazin-1-yl)pyridin-2-yl]pyrimidin-2-amine], in that order: 20 to 200 nM and 200 to 2000 nM.
The like results for `Cc1c(-c2nc(Nc3ccc(N4CCN(C)CC4)cn3)ncc2F)sc2c(C3CCCC3)nccc12` [Example 48, 4-(7-Cyclopentyl-3-methylthieno[2,3-c]pyridin-2-yl)-5-fluoro-N-(5-(4-methylpiperazin-1-yl)pyridin-2-yl)pyrimidin-2-amine] were, in that order, 200 to 2000 nM and 200 to 2000 nM.
As to `CCN1CCN(Cc2ccc(Nc3ncc(F)c(-c4cc5nccc(C(C)(O)C(F)(F)F)c5s4)n3)nc2)CC1` (centres unmarked) [Example 25, 2-[2-[2-[[5-[(4-Ethylpiperazin-1-yl)methyl]pyridin-2-yl]amino]-5-fluoropyrimidin-4-yl]thieno[3,2-b]pyridin-7-yl]-1,1,1-trifluoropropan-2-ol], the IC50 was 20 to 200 nM on CDK4/Cyclin D1 and 20 to 200 nM in assay [1] (Homo sapiens, 240 h).
Consider `Fc1cnc(Nc2ccc(N3CCC(F)(F)C3)cn2)nc1-c1cc2nccc(C3CCCC3)c2s1` [Example 41, 4-(7-Cyclopentylthieno[3,2-b]pyridin-2-yl)-N-[5-(3,3-difluoropyrrolidin-1-yl)pyridin-2-yl]-5-fluoropyrimidin-2-amine], for which the IC50 on CDK4/Cyclin D1 was 200 to 2000 nM; in assay [1] (Homo sapiens, 240 h), above 2000 nM.
For `CCN1CC2(C1)CN(c1ccc(Nc3ncc(F)c(-c4cc5c(C6CCCC6)ccnc5s4)n3)nc1)C2` [Example 47, 4-(4-Cyclopentylthieno[2,3-b]pyridin-2-yl)-N-[5-(6-ethyl-2,6-diazaspiro[3.3]heptan-2-yl)pyridin-2-yl]-5-fluoropyrimidin-2-amine], in that order: 20 to 200 nM and 200 to 2000 nM.
The like results for `CCN1CCN(Cc2ccc(Nc3ncc(F)c(-c4sc5c(nc(C)n5C5CCC5)c4C)n3)nc2)CC1` [Example 10, 4-(3-Cyclobutyl-2,6-dimethylthieno[2,3-d]imidazol-5-yl)-N-[5-[(4-ethylpiperazin-1-yl)methyl]pyridin-2-yl]-5-fluoropyrimidin-2-amine] were, in that order, at most 20 nM and 200 to 2000 nM.
For `CN1CCC(c2ccc(Nc3ncc(F)c(-c4cc5nccc(C6CCCC6)c5s4)n3)nc2)CC1` [Example 34, 4-(7-Cyclopentylthieno[3,2-b]pyridin-2-yl)-5-fluoro-N-(5-(1-methylpiperidin-4-yl)pyridin-2-yl)pyrimidin-2-amine], in that order: at most 20 nM and 20 to 200 nM.
Regarding `CCN1CCN(c2ccc(Nc3ncc(F)c(-c4cc5nccc(C6CCCC6)c5s4)n3)nc2)CC1` [Example 24, 4-(7-Cyclopentylthieno[3,2-b]pyridin-2-yl)-N-[5-(4-ethylpiperazin-1-yl)pyridin-2-yl]-5-fluoropyrimidin-2-amine], the IC50 lay within 20 to 200 nM at CDK4/Cyclin D1 and 200 to 2000 nM in assay [1] (Homo sapiens, 240 h).
The like results for `Cc1c(-c2nc(Nc3ccc(N4CCOCC4)cn3)ncc2F)sc2c(C3CCCC3)ccnc12` [Example 38, 4-(7-Cyclopentyl-3-methylthieno[3,2-b]pyridin-2-yl)-5-fluoro-N-(5-morpholinopyridin-2-yl)pyrimidin-2-amine] were, in that order, 20 to 200 nM and above 2000 nM.
The like results for `Fc1cnc(Nc2ccc(N3CCOCC3)cn2)nc1-c1cc2nccc(C3CCCC3)c2s1` [Example 40, 4-(7-Cyclopentylthieno[3,2-b]pyridin-2-yl)-5-fluoro-N-(5-morpholinopyridin-2-yl)pyrimidin-2-amine] were, in that order, 20 to 200 nM and above 2000 nM.
For `Cc1c(-c2nc(Nc3ccc(C4CCN(C)CC4)cn3)ncc2F)sc2c(C3CCCC3)ccnc12` [Example 26, 4-(7-Cyclopentyl-3-methylthieno[3,2-b]pyridin-2-yl)-5-fluoro-N-(5-(1-methylpiperidin-4-yl)pyridin-2-yl)pyrimidin-2-amine], in that order: at most 20 nM and 20 to 200 nM.
Turning to `CCN1CCN(Cc2ccc(Nc3ncc(F)c(-c4sc5c(C6CCCC6)ccnc5c4C)n3)nc2)CC1` [Example 22, 4-(7-Cyclopentyl-3-methylthieno[3,2-b]pyridin-2-yl)-N-(5-((4-ethylpiperazin-1-yl)methyl)pyridin-2-yl)-5-fluoropyrimidin-2-amine], the IC50 at CDK4/Cyclin D1 fell in the range of 20 to 200 nM; in assay [1] (Homo sapiens, 240 h) it was 200 to 2000 nM.
Consider `Cc1c(-c2nc(Nc3ccc(N4CC5(CNC5)C4)cn3)ncc2F)sc2c(C3CCCC3)ccnc12` [Example 32, N-(5-(2,6-Diazaspiro[3.3]heptan-2-yl)pyridin-2-yl)-4-(7-cyclopentyl-3-methylthieno[3,2-b]pyridin-2-yl)-5-fluoropyrimidin-2-amine], for which the IC50 on CDK4/Cyclin D1 is at most 20 nM; in assay [1] (Homo sapiens, 240 h) it was 200 to 2000 nM.
For `Fc1cnc(Nc2ccc(N3CCNCC3)cn2)nc1-c1cc2c(C3CCCC3)ccnc2s1` [Example 46, 4-(4-Cyclopentylthieno[2,3-b]pyridin-2-yl)-5-fluoro-N-(5-piperazin-1-ylpyridin-2-yl)pyrimidin-2-amine], in that order: 20 to 200 nM and 200 to 2000 nM.
The like results for `CCN1CCN(Cc2ccc(Nc3ncc(F)c(-c4sc5c(C(C)C)[nH]nc5c4C)n3)nc2)CC1` [Example 100, N-(5-((4-Ethylpiperazin-1-yl)methyl)pyridin-2-yl)-5-fluoro-4-(3-isopropyl-6-methyl-2H-thieno[3,2-c]pyrazol-5-yl)pyrimidin-2-amine] were, in that order, 20 to 200 nM and 200 to 2000 nM.
For the molecule `Cc1c(-c2nc(Nc3ccc(C4CN(C)CCO4)cn3)ncc2F)sc2c1nc(C)n2C(C)C` (centres unmarked) [Example 115, 5-Fluoro-4-(3-isopropyl-2,6-dimethyl-3H-thieno[2,3-d]imidazol-5-yl)-N-(5-(4-methylmorpholin-2-yl)pyridin-2-yl)pyrimidin-2-amine], the IC50 on CDK4/Cyclin D1 was at most 20 nM; in assay [1], 20 to 200 nM.
